Assay results taken from BindingDB's records for patent US11845767 (Rijksuniversiteit Groningen, 2023).

Key:
Arginase-1 = target: T1, Arginase-1 (Homo sapiens, UniProt P05089); experiment: Inhibition of Arginase
T1 sequence (P05089 whole entry): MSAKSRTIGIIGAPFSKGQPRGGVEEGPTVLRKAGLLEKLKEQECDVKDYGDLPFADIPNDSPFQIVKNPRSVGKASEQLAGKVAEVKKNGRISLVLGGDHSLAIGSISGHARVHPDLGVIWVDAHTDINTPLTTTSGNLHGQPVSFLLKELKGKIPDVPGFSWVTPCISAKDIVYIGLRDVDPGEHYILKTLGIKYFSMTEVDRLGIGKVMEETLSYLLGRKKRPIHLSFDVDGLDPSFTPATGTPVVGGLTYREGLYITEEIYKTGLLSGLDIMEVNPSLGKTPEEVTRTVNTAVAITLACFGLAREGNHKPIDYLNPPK
Protocol: (§1) Inhibition of arginase I (ARG I) and arginase II (ARGG II) novel compounds is followed spectrophotometrically at 530 nm. The compound to be tested is dissolved in H2O and prepared 100 mM stock solution. 10 μl of the stock solution is diluted in 90 μl of the assay buffer that comprises 0.1M sodium phosphate buffer containing 130 mM NaCl, pH 7.4, to which is added ovalbumin (OVA) at a concentration of 1 mg/mi. Solutions of arginase I and II are prepared in 100 mM sodium phosphate buffer, pH 7.4 containing 1 mg/ml OVA to give an arginase stock solution at a final concentration of 100 ng/ml. To each well of a 96-well microtiter plate is add 40 μl of enzyme, 10 μl of an inventive compound and 10 μl of enzyme substrate (L-arginine+manganese sulfate). For wells that are used as positive controls, only the enzyme and its substrate are added, while wells used as negative controls contain only manganese sulfate. After incubating the microtiter plate at 37° C. for 60 minutes, 150 μl of a urea reagent obtained by combining equal proportions (1:1) of reagents A and B is added to each well of the microtiter plate to stop the reaction. The urea reagent is made just before use by combining Reagent A (10 mM o-phthaldialdehyde, and 0.4% polyoxyethylene (23) lauryl ether (w/v) in 1.8 M sulfuric acid) with Reagent B (1.3 mM […], 0.4% polyoxyethylene (23) lauryl ether (w/v), 130 mM boric acid in 3.6 M sulfuric acid). After quenching the reaction mixture, the microtiter plate is allowed to stand for an additional 10 minutes at room temperature to allow color development. T

[1] = target: T2, Arginase-2, mitochondrial (Homo sapiens, UniProt P78540); experiment: Inhibition of Arginase
T2 sequence (P78540 whole entry): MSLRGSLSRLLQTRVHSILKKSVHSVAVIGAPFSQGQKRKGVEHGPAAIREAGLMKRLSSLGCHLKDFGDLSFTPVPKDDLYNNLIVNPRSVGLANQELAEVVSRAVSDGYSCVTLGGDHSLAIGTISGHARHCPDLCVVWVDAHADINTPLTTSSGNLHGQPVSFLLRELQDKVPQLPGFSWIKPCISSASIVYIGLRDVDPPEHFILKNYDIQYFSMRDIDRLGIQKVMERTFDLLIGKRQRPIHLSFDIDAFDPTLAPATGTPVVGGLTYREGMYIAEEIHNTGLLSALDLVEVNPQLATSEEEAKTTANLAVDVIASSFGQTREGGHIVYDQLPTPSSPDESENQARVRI
Protocol: as §1

IC50 (Arginase-1) [nM]	IC50 [1] [nM]	SMILES
340		NC(CCCCB(O)O)c1nnnn1CC(=O)N1CCOCC1 (stereo not given) [US11845767, Example 274]
14		CCCCNC(=O)Cn1nnnc1C(N)CCCCB(O)O (stereo not given) [US11845767, Example 271]
15.5	18.6	NC(CCCCB(O)O)c1nnnn1CC(=O)NCc1ccc(Cl)cc1F (stereo not given) [US11845767, Example 318]
< 101		NC(CCCCB(O)O)c1nnnn1CCc1ccc(Br)cc1 (stereo not given) [US11845767, Example 313]
